# Source: patent US12391679B2, “Benzamide-substituted bicyclic imidazo- and pyrazolo-fused -pyridine, -pyrimide, and -pyridazine compounds for treatment of inflammatory diseases” (ONCO3R Therapeutics BV, priority 2019, dated 2025)
# Key:
# SIK2 [1] = target: T1, SIK2 (Homo sapiens, UniProt Q9H0K1); assay: 33P radioactive kinase assay, SIK2; assay type: biochemical; note: AMARA 5 µM, 10 µM ATP
# T1 construct: purchased ThermoFisher Scientific PV4792
# Description: (§1) The principle of the ^33P radioactive kinase assay consists in measuring the incorporated ^33P into the substrate AMARA peptide when phosphorylated by SIK1, SIK2 or SIK3 using [^33P]-g-ATP, which correlates with kinase activity.
# (§2) The test compounds are prepared as a serial dilution of 10 point dose responses with 1/5 dilution steps in 100% DMSO starting from 2 mM highest concentration, diluted 1/20 in water and 5 μL is transferred to the assay plates (Greiner, Cat #651201).
# (§3) 1% DMSO and 10 μM staurosporine final concentrations are used as negative and positive controls.
# (§4) 11 μL of enzyme-substrate mixture is added on the assay plates. The reactions are started by adding 9 μL ATP mixture, consisting of non-labeled and ^33P-labeled ATP, on the assay plates.
# (§5) The reactions are stopped by adding 25 μL phosphoric acid (150 mM) to the reactions.
# (§6) The completely terminated kinase reactions are transferred using a harvester on pre-wetted UniFilter-96 plates (UniFilter-96 GF/B, PerkinElmer Inc., Cat #6005177).
# (§7) After harvesting the kinase reactions, the filter plates are washed 6 times with phosphoric acid (75 mM). The back of the UniFilter-96 plates are sealed and 40 μL MicroScint-20 (PerkinElmer Inc., Cat #6013621) is added to each well. The top of the plates are sealed with TopSeal-A. Read-out is performed with a TopCount instrument (PerkinElmer Inc.).
# (§8) Raw data are generated following the read-out performed on the TopCount, plotted to generate dose response curves to calculate percentage inhibition (PIN) and average IC50 for each SIK homologue which are reported in the table below.
# SIK1 [2] = target: T2, SIK1 (Homo sapiens, UniProt P57059); assay: 33P radioactive kinase assay, SIK1; assay type: biochemical
# T2 construct: purchased Carna Biosciences 02-131
# T2 sequence (P57059 whole entry): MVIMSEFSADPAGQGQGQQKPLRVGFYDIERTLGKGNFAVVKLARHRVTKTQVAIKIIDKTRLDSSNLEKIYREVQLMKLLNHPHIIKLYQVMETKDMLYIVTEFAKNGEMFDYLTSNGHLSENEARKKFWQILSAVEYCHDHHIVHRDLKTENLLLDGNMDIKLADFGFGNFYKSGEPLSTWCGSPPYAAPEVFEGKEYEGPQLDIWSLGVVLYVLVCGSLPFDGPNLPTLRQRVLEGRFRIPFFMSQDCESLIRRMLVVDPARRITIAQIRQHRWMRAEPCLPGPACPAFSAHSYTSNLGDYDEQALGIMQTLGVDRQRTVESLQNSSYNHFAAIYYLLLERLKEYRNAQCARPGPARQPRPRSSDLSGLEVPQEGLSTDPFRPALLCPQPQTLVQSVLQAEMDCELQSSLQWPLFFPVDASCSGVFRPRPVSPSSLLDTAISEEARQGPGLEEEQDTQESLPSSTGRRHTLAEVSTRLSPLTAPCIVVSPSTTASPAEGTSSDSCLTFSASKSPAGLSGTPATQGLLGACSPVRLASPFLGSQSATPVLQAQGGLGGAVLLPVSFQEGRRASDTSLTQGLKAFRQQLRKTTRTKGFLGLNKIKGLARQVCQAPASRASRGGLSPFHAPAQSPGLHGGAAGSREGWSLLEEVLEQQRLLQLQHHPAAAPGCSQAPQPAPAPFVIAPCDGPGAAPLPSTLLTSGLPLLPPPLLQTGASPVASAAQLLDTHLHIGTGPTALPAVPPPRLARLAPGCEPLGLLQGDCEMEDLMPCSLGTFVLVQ
# Description: as §1, §2, §3, §4, §5, §6, §7, §8
# SIK3 [3] = target: T3, SIK3 (Homo sapiens, UniProt Q9Y2K2); assay: 33P radioactive kinase assay, SIK3; assay type: biochemical; details: 33P radioactive assay; AMARA 7 μM; 15 μM ATP; 80 min; average IC50
# T3 construct: purchased SignalChem S12-11G-100
# T3 sequence (Q9Y2K2 59-365 limits assumed): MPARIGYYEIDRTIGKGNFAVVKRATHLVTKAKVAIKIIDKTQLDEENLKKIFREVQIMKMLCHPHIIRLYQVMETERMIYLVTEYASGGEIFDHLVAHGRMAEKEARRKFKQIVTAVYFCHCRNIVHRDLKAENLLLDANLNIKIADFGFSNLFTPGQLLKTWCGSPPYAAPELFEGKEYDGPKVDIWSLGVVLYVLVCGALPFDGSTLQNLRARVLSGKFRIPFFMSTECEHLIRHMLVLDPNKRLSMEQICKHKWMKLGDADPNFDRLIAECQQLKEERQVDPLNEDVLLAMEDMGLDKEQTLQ
# Description: as §1, §2, §3, §4, §5, §6, §7, §8
# [4] = system: LPS triggered IL-10 secretion in monocytes; assay: Monocytes assay: LPS-triggered IL-10 (ELISA); assay type: cell-based, human; details: Homo sapiens, Monocyte, LPS-triggered IL-10 induction, median maximal fold change vs LPS only, read-out: IL-10 FCmax median
# Description: This assay evaluates illustrative compounds of the invention for their inhibition of LPS-induced TNFα and LPS triggered IL-10 secretion in monocytes.
# PBMCs are isolated from human blood samples (buffycoats). The buffy coat is aseptically transferred into a 50 mL Falcon tube, and diluted 1/2 in PBS. Falcon tubes are filled with 20 mL Lymphoprep™, on top of which 25 mL of the buffy coat is carefully added, tubes are centrifuged for 35 min at 400 g in temperature controlled centrifuge, without brake, at 25° C. PBMCs are aspirated from the white interface layer between sample and Lymphoprep™. PBMCs are washed five times in PBS.
# PBMCs are centrifuged at 300×g for 10 min and resuspended at a density of 1.0*10^7 cells/80 μL Miltenyi buffer (PBS, pH 7.4, 1% FBS, 2 mM EDTA).
# Starting from this point of the protocol all steps are performed on ice. 20 μL of CD14+ micro-beads are added per 1.0*10^7 cells, the tube is mixed and incubated for 15 min in the fridge at 4° C. Cell suspension volume is adjusted to total volume of 100 mL using Miltenyi buffer, mixed gently and subsequently centrifuged for 10 min at 300×g. Supernatant is discarded and cell pellet is resuspended in 12 mL of Miltenyi buffer.
# Four LS columns are placed in the MACS Separator (magnet) from Miltenyi Biotec, and are prewet by rinsing with 3 mL of MACS buffer per column. Three mL of cell suspension is added onto the column (max 1*10^8 of labelled cells/column), and columns are subsequently washed 3 times with 3 mL of Miltenyi buffer.
# The columns are removed from the magnets, and 5 mL of Miltenyi buffer are added to the column to flush out the CD14+ fraction by pushing the plunger into the column. The flushed fractions are collected in a fresh 50 mL Falcon and volume is adjusted to 30 mL using Miltenyi buffer, cells are centrifuged for 10 min at 300×g. The obtained cell pellet is resuspended in 10 mL RPMI w/o FBS, and cell density is determined using a hematologic analyser (Sysmex XS-500i).
# A compound dilution plate is made in 100% DMSO by 3-fold dilution of 10 mM stock solution. An intermediate dilution plate (10× final concentration) is made by diluting the compound dilution plate 50-fold in RPMI medium.
# 10 μL of the 10× final concentration compound is added to the cells and incubated for 1 h at 37° C. before addition of trigger. No trigger conditions/trigger conditions are spiked with equal final DMSO concentrations of 0.2% DMSO. 10 μL of 10×LPS (final conc. 200 ng/mL) solution are added to all wells except for the ‘no trigger wells’ where 10 μL medium is added. Supernatant is collected after 4 h of LPS triggering.
# A Lumitrac 600 Greiner 384-well plate is coated with 40 μL of capture antibody (final concentration of 1 μg/mL in 1×PBS) and stored overnight at 4° C. The next day the plate is washed three times with PBST (PBS+0.05% Tween20) and once with PBS followed by the addition of 100 μL of blocking buffer (1% BSA-5% Sucrose) and plates are sealed and incubated for at least 4 h at RT. After washing the plate once with PBST and once with PBS, 40 μL of standard or sample are added (IL-10 standard curve is prepared using a 1/2 serial dilution starting from 2000 pg/mL; dilutions are made in dilution buffer (PBS+1% BSA)). […] Plates are washed twice with PBST, and once with PBS, whereafter 35 μL of Strep-HRP conjugate (0.5 μg/mL final concentration diluted in dilution buffer) is added. Plates are incubated in the dark, at RT for at least 45 min but no longer than 1 h. Plates are washed twice with PBST, and once with PBS. Thereafter, 50 μL of luminol substrate is added to each well (prepared according to manufacturer's instructions), and incubated for 5 min at RT protected from light.
# To quantify these increases, fold changes (FC) compared to ‘LPS only’ are calculated for each concentration tested and the maximal FC is calculated (IL-10 FCmax): […]
# SIK3 [5] = target: T3, SIK3; assay: ADP-Glo kinase assay, SIK3; assay type: biochemical
# Method in brief: (§9)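 ADP-Glo format, luminescent. Room-temperature kinase reaction lasting 120 min, followed by ATP removal (40 min) and ADP detection (30 min); 10 μM staurosporine serves as full-inhibition control, 1% DMSO as uninhibited control.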
# [6] = system: LPS-induced TNFα in monocytes; assay: Monocytes assay: LPS-triggered TNFα (ELISA); assay type: cell-based, human; details: Homo sapiens, Monocyte, LPS-triggered TNFα inhibition
# Method in brief: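 TNFα secretion was triggered with 200 ng/mL LPS for 4 h in human blood CD14+ monocytes after 1 h compound pretreatment at 37 °C, with 0.2% final DMSO. Supernatants were analysed by streptavidin-HRP/luminol ELISA, and percentage inhibition at each concentration was derived relative to control wells.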
# SIK1 [7] = target: T2, SIK1; assay: ADP-Glo kinase assay, SIK1; assay type: biochemical
# Method in brief: as §9
# SIK2 [8] = target: T1, SIK2; assay: ADP-Glo kinase assay, SIK2; assay type: biochemical
# Method in brief: as §9
# [9] = ADP-Glo, AMARA 45 μM, 5 μM ATP, 120 min, average IC50
# T1 sequence (Q9H0K1 whole entry): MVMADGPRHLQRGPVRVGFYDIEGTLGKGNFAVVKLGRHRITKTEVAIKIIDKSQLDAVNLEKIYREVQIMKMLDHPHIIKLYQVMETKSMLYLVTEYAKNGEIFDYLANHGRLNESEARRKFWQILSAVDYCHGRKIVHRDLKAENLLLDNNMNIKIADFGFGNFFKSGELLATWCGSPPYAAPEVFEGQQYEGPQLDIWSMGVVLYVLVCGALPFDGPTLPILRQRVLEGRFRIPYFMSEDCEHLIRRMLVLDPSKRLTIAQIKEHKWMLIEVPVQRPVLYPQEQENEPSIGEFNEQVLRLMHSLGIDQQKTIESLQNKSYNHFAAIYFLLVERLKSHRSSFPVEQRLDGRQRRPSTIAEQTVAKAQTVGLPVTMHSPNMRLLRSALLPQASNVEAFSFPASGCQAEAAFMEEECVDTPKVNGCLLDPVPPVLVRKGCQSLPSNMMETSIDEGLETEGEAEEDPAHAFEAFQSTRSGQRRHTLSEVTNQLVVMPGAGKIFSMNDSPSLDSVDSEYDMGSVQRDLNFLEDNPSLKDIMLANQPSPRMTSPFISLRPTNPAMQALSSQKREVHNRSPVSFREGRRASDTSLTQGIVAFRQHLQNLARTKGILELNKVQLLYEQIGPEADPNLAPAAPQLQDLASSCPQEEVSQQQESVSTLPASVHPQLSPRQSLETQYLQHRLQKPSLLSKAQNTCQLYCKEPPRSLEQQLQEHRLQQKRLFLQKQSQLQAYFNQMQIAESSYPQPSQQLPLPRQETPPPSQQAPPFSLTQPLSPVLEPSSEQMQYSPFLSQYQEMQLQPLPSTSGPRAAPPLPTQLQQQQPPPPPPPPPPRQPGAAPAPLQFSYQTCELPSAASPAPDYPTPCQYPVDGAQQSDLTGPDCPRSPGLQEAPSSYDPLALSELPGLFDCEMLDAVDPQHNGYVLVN
Compound,IC50 (SIK2 [1]),IC50 (SIK1 [2]),IC50 (SIK3 [3]),maximal fold induction [4],IC50 (SIK3 [5]),EC50 [6],IC50 (SIK1 [7]),IC50 (SIK2 [8]),IC50 (SIK3 [5]; [9]),IC50 (SIK1 [7]; [9]),IC50 (SIK2 [8]; [9])
"COc1cc(-n2cnc3cc(C4CCN(C)CC4)ccc32)cc(OC)c1C(=O)NCC(F)(F)F [Cpd 1, 2,6-dimethoxy-4-[5-(1-methyl-4-piperidyl)benzimidazol-1-yl]-N-(2,2,2-trifluoroethyl)benzamide]",> 500 nM,> 500 nM,> 500 nM,,,,,,,,
"COc1cc(-n2cnc3cc(C4CCN(C(=O)OC(C)(C)C)CC4)ccc32)cc(OC)c1C(=O)NCC(F)(F)F [Cpd 2, tert-butyl 4-[1-[3,5-dimethoxy-4-(2,2,2-trifluoroethylcarbamoyl)phenyl]benzimidazol-5-yl]piperidine-1-carboxylate]",100 to 500 nM,> 500 nM,100 to 500 nM,,,,,,,,
"COc1cc(-n2cnc3cc(C4CCNCC4)ccc32)cc(OC)c1C(=O)NCC(F)(F)F [Cpd 3, 2,6-dimethoxy-4-[5-(4-piperidyl)benzimidazol-1-yl]-N-(2,2,2-trifluoroethyl)benzamide]",100 to 500 nM,> 500 nM,100 to 500 nM,,,,,,,,
"COc1cc(-n2cnc3cc(C4CCN(CC#N)CC4)ccc32)cc(OC)c1C(=O)NCC(F)(F)F [Cpd 4, 4-[5-[1-(cyanomethyl)-4-piperidyl]benzimidazol-1-yl]-2,6-dimethoxy-N-(2,2,2-trifluoroethyl)benzamide]",> 500 nM,> 500 nM,100 to 500 nM,,,,,,,,
"COc1cc(-n2cnc3cc(C4CCOCC4)ccc32)cc(OC)c1C(=O)NCC(F)(F)F [Cpd 5, 2,6-dimethoxy-4-(5-tetrahydropyran-4-ylbenzimidazol-1-yl)-N-(2,2,2-trifluoroethyl)benzamide]",> 500 nM,> 500 nM,100 to 500 nM,,,,,,,,
"COc1cc(-n2cnc3cc(C4CCCN(C)C4)ccc32)cc(OC)c1C(=O)NCC(F)(F)F (centres unmarked) [Cpd 6, 2,6-dimethoxy-4-[5-(1-methyl-3-piperidyl)benzimidazol-1-yl]-N-(2,2,2-trifluoroethyl)benzamide]",> 500 nM,> 500 nM,100 to 500 nM,,,,,,,,
"COCC(C)(O)c1ccn2c(-c3cc(OC)c(C(=O)NC4CC4)c(OC(F)F)c3)cnc2c1 (centres unmarked) [Cpd 182, N-cyclopropyl-2-(difluoromethoxy)-4-[7-(1-hydroxy-2-methoxy-1-methyl-ethyl)imidazo[1,2-a]pyridin-3-yl]-6-methoxy-benzamide]",,,,< 1.5,10 to 100 nM,100 to 1000 nM,> 500 nM,> 500 nM,,,
"COc1cc(-c2cnc3cc(C4CCOCC4)c(OCCO)cn23)cc(OC(F)F)c1C(=O)NC1CC1 [Cpd 183, N-cyclopropyl-2-(difluoromethoxy)-4-[6-(2-hydroxyethoxy)-7-tetrahydropyran-4-yl-imidazo[1,2-a]pyridin-3-yl]-6-methoxy-benzamide]",,,,< 1.5,10 to 100 nM,1000 to 5000 nM,> 500 nM,100 to 500 nM,,,
"COc1cc(-c2cnc3cc(C(C)(O)CN4CC(F)(F)C4)ccn23)cc(OC(F)F)c1C(=O)NC1CC1 (centres unmarked) [Cpd 191, N-cyclopropyl-4-[7-[2-(3,3-difluoroazetidin-1-yl)-1-hydroxy-1-methyl-ethyl]imidazo[1,2-a]pyridin-3-yl]-2-(difluoromethoxy)-6-methoxy-benzamide]",,,,< 1.5,10 to 100 nM,1000 to 5000 nM,> 500 nM,> 500 nM,,,
"COc1cn2c(-c3cc(OC)c(C(=O)NC4CC4)c(OC(F)F)c3)cnc2cc1C(C)(C)C#N [Cpd 200, 4-[7-(1-cyano-1-methyl-ethyl)-6-methoxy-imidazo[1,2-a]pyridin-3-yl]-N-cyclopropyl-2-(difluoromethoxy)-6-methoxy-benzamide]",,,,< 1.5,10 to 100 nM,100 to 1000 nM,> 500 nM,100 to 500 nM,,,
"[2H]C([2H])([2H])C(C#N)(c1ccn2c(-c3cc(OC)c(C(=O)NC4CC4)c(OC(F)F)c3)cnc2c1)C([2H])([2H])[2H] [Cpd 230, 4-[7-[1-cyano-2,2,2-trideuterio-1-(trideuteriomethyl)ethyl]imidazo[1,2-a]pyridin-3-yl]-N-cyclopropyl-2-(difluoromethoxy)-6-methoxy-benzamide]",,,,< 1.5,0.01 to 10 nM,100 to 1000 nM,> 500 nM,100 to 500 nM,,,
"COCC(C)(C)c1ccc2c(-c3cc(OC)c(C(=O)NC4CC4)c(OC(F)F)c3)cnn2c1 [Cpd 238, N-cyclopropyl-2-(difluoromethoxy)-6-methoxy-4-[6-(2-methoxy-1,1-dimethyl-ethyl)pyrazolo[1,5-a]pyridin-3-yl]benzamide]",,,,< 1.5,10 to 100 nM,100 to 1000 nM,> 500 nM,> 500 nM,,,
"COc1cc(-c2cnn3cc(C4COCCO4)ccc23)cc(OC(F)F)c1C(=O)N[C@@H]1C[C@@H]1F (stereo partly drawn) [Cpd 240, 2-(difluoromethoxy)-4-[6-(1,4-dioxan-2-yl)pyrazolo[1,5-a]pyridin-3-yl]-N-[(1R,2S)-2-fluorocyclopropyl]-6-methoxy-benzamide]",,,,1.5 to 4.5,,100 to 1000 nM,,,0.01 to 10 nM,100 to 500 nM,10 to 100 nM
